Test results reported in US9828339B2, “Biphenyl derivatives and methods for preparing same” (DONG-A ST CO., LTD, priority 2013, dated 2017).
pKi: −log10 of the molar value.

These molecules were tested against human muscarinic M3 receptor (Homo sapiens (Human), UniProt P20309) (assay: Binding assay on human muscarinic M3 receptor ([3H]-methyl scopolamine displacement)). Details: membranes overexpressing human M3 receptor, Ki from IC50 by Cheng-Prusoff, read-out: Binding Affinity to M3 Receptor, Ki.
Sequence of human muscarinic M3 receptor (P20309 whole entry): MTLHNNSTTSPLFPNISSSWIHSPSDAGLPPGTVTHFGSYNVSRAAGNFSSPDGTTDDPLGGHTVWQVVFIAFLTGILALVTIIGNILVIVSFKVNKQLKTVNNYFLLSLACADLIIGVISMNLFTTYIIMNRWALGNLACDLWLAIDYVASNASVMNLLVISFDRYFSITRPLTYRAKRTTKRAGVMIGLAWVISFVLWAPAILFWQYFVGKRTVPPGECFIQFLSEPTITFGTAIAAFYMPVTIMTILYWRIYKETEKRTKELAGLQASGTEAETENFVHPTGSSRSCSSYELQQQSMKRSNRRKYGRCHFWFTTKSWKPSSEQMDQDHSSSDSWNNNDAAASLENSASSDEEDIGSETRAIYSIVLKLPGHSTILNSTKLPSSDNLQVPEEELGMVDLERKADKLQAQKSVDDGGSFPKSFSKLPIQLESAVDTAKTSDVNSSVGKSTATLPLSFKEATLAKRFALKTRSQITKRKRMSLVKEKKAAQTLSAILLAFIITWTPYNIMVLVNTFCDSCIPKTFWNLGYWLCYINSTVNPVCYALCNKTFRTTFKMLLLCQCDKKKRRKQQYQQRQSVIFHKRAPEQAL
Description: [Experimental Example 1] Binding Assay on Human Muscarinic M3 Receptor
Cell membrane proteins (Perkin Elmer) wherein human muscarinic M3 receptor was overexpressed, [^3H]-methyl scopolamine and test compounds in various concentration were cultured in 0.2 ml of Tris-HCl buffer at 25° C. for 120 minutes. The same was filtered under suction through glass fiber filter (Whatman GF/B), and then the filter was washed 5 times with 1 ml of Tris-HCl buffer. The radioactivity of [^3H]-methyl scopolamine adsorbed on the filter was measured by a liquid scintillation counter. Non-specific binding was evaluated under existence of 5 μM of atropine. Affinity of the compound of the present invention to muscarinic M3 receptor was calculated as the dissociation constant (Ki), which can be calculated from concentration (IC50) of test compounds inhibiting 50% of binding of [^3H]-methyl scopolamine (i.e. labeled ligand) according to Cheng and Prusoff [Cheng and Prusoff, Biochem. Pharmacol., 22, 3099, 1973].

Row | SMILES | pKi
1 | CN1CC[C@@H](COC(=O)Nc2ccccc2-c2cccc(O)c2)C1 [Example 137, (R)-(1-methylpyrrolidin-3-yl)methyl(3′-hydroxy-[1,1′-biphenyl]-2-yl)carbamate] | 7.57
2 | COc1ccc(NC(=O)OCCC2CCCN2C)c(-c2ccccc2)c1 (stereo not shown) [Example 60, 2-(1-methylpyrrolidin-2-yl)ethyl(5-methoxy-[1,1′-biphenyl]-2-yl)carbamate] | 6.93
3 | CN1CCC[C@H]1COC(=O)Nc1ccc(F)cc1-c1ccc(Cl)c(F)c1 [Example 212, (S)-(1-methylpyrrolidin-2-yl)methyl(4′-chloro-3′,5-difluoro-[1,1′-biphenyl]-2-yl)carbamate] | < 6.00
4 | CN1CC[C@@H](COC(=O)Nc2ccccc2-c2cccc(F)c2F)C1 [Example 158, (R)-(1-methylpyrrolidin-3-yl)methyl(2′,3′-difluoro-[1,1′-biphenyl]-2-yl)carbamate] | 6.92
5 | CN1CCCC1CCOC(=O)Nc1ccc(C(F)(F)F)cc1-c1ccccc1 (stereo not shown) [Example 47, 2-(1-Methylpyrrolidin-2-yl)ethyl(5-(trifluoromethyl)-[1,1′-biphenyl]-2-yl)carbamate] | 6.86
6 | CN1CCCC1CCOC(=O)Nc1cc(F)ccc1-c1ccccc1 (stereo not shown) [Example 23, 2-(1-methylpyrrolidin-2-yl)ethyl(4-fluoro-[1,1′-biphenyl]-2-yl)carbamate] | 8.19
7 | CN1CCCC1CCOC(=O)Nc1ccc(F)cc1-c1cc(Cl)cc(Cl)c1 (stereo not shown) [Example 55, 2-(1-methylpyrrolidin-2-yl)ethyl(3′,5′-dichloro-5-fluoro-[1,1′-biphenyl]-2-yl)carbamate] | 7.41
8 | COc1ccc(NC(=O)OCCC2CCCN2C)c(-c2cccc(F)c2)c1 (stereo not shown) [Example 61, 2-(1-methylpyrrolidin-2-yl)ethyl(3′-fluoro-5-methoxy-[1,1′-biphenyl]-2-yl)carbamate] | 6.66
9 | CN1CCC[C@H]1COC(=O)Nc1ccccc1-c1ccc(Cl)cc1 [Example 164, (S)-(1-methylpyrrolidin-2-yl)methyl(4′-chloro-[1,1′-biphenyl]-2-yl)carbamate] | 7.43
10 | Cc1cc(C)cc(-c2ccccc2NC(=O)OC[C@@H]2CCN(C)C2)c1 [Example 191, (R)-(1-methylpyrrolidin-3-yl)-methyl (3′,5′-dimethyl-[1,1′-biphenyl]-2-yl)carbamate] | 7.51
11 | CN1CCC[C@H]1COC(=O)Nc1ccccc1-c1cc(F)cc(F)c1 [Example 161, (S)-(1-methylpyrrolidin-2-yl)methyl(3′,5′-difluoro-[1,1′-biphenyl]-2-yl)carbamate] | 8.05
12 | O=C(Nc1ccc(F)cc1-c1cc(F)cc(F)c1)OC[C@@H]1CCNC1 [Example 84, (R)-pyrrolidin-3-ylmethyl (3′,5,5′-trifluoro-[1,1′-biphenyl]-2-yl)carbamate] | 7.46
13 | O=C(Nc1ccc(F)cc1-c1ccccc1)OC[C@H]1CCNC1 [Example 82, (S)-pyrrolidin-3-ylmethyl-(5-fluoro-[1,1′-biphenyl]-2-yl)carbamate] | 7.72
14 | COc1ccc(NC(=O)OCCC2CCCN2C)c(-c2cc(Cl)cc(Cl)c2)c1 (stereo not shown) [Example 64, 2-(1-Methylpyrrolidin-2-yl)ethyl(3′,5′-dichloro-5-methoxy-[1,1′-biphenyl]-2-yl)carbamate] | < 6.00
15 | COc1cc(OC)cc(-c2cc(F)ccc2NC(=O)OC[C@@H]2CCCN2C)c1 [Example 221, (S)-(1-methylpyrrolidin-2-yl)methyl(5-fluoro-3′,5′-dimethoxy-[1,1′-biphenyl]-2-yl)carbamate] | < 6.00
16 | CN1CC[C@@H](COC(=O)Nc2ccccc2-c2cc(Cl)cc(C(F)(F)F)c2)C1 [Example 138, (R)-(1-methylpyrrolidin-3-yl)methyl(3′-chloro-5′-(trifluoromethyl)-[1,1′-biphenyl]-2-yl)carbamate] | < 6.00
17 | CN1CCCC1CCOC(=O)Nc1ccc(C(F)(F)F)cc1-c1cccc(Cl)c1 (stereo not shown) [Example 51, 2-(1-Methylpyrrolidin-2-yl)ethyl(3′-chloro-5-(trifluoromethyl)-[1,1′-biphenyl]-2-yl)carbamate] | 6.99

Next, values leading:

Row | pKi | SMILES
18 | 7.34 | Cc1cc(C)cc(-c2cc(F)ccc2NC(=O)OC[C@@H]2CCN(C)C2)c1 [Example 193, (R)-(1-methylpyrrolidin-3-yl)methyl(5-fluoro-3′,5′-dimethyl-[1,1′-biphenyl]-2-yl)carbamate]
19 | 7.89 | CCN1CC[C@@H](COC(=O)Nc2ccccc2-c2ccccc2)C1 [Example 102, (R)-(1-ethylpyrrolidin-3-yl)methyl [1,1′-biphenyl]-2-ylcarbamate]
20 | 6.36 | CN1CCCC1CCOC(=O)Nc1ccccc1-c1ccccc1Cl (stereo not shown) [Example 35, 2-(1-methylpyrrolidin-2-yl)ethyl(2′-chloro-[1,1′-biphenyl]-2-yl)carbamate]
21 | 7.56 | O=C(Nc1ccccc1-c1cc(F)cc(F)c1)OC[C@@H]1CCNC1 [Example 80, (R)-pyrrolidin-3-ylmethyl-(3′,5′-difluoro-[1,1′-biphenyl]-2-yl)carbamate]
22 | 7.23 | CN1CCCC1CCOC(=O)Nc1ccc(Cl)cc1-c1cc(F)cc(Cl)c1 (stereo not shown) [Example 72, 2-(1-Methylpyrrolidin-2-yl)ethyl (3′,5-dichloro-5′-fluoro-[1,1′-biphenyl]-2-yl)carbamate]
23 | 6.08 | CN(C)c1ccc(-c2ccccc2NC(=O)OCCC2CCCN2C)cc1 (stereo not shown) [Example 30, 2-(1-methylpyrrolidin-2-yl)ethyl(4′-(dimethylamino)-[1,1′-biphenyl]-2-yl)carbamate]
24 | 6.07 | CN1CCCC1CCOC(=O)Nc1ccccc1-c1ccc(C#N)cc1 (stereo not shown) [Example 28, 2-(1-methylpyrrolidin-2-yl)ethyl(4′-cyano-[1,1′-biphenyl]-2-yl)carbamate]
25 | 6.65 | COc1cc(Cl)cc(-c2cc(F)ccc2NC(=O)OC[C@@H]2CCCN2C)c1 [Example 217, (S)-(1-methylpyrrolidin-2-yl)methyl (3′-chloro-5-fluoro-5′-methoxy-[1,1′-biphenyl]-2-yl)carbamate]
26 | 7.00 | O=C(Nc1ccccc1-c1ccc(F)cc1)OCC1CCCN1 (stereo in doubt) [Example 88, (S)-pyrrolidin-2-ylmethyl (4′-fluoro-[1,1′-biphenyl]-2-yl)carbamate]
27 | < 6.00 | CN1CC[C@@H](COC(=O)Nc2ccc(F)cc2-c2cc(Cl)cc(C(F)(F)F)c2)C1 [Example 140, (R)-(1-methylpyrrolidin-3-yl)methyl(3′-chloro-5-fluoro-5′-(trifluoromethyl)-[1,1′-biphenyl]-2-yl)carbamate]
28 | 7.97 | Cc1cccc(-c2cc(F)ccc2NC(=O)OC[C@H]2CCCN2C)c1 [Example 111, (R)-(1-methylpyrrolidin-2-yl)-methyl (5-fluoro-3′-methyl-[1,1′-biphenyl]-2-yl)carbamate]
29 | 9.21 | CN1CCC[C@H]1COC(=O)Nc1ccc(F)cc1-c1cccc(Cl)c1 [Example 174, (S)-(1-methylpyrrolidin-2-yl)methyl(3′-chloro-5-fluoro-[1,1′-biphenyl]-2-yl)carbamate]
30 | 6.59 | CN1CCCC1CCOC(=O)Nc1ccc(C(F)(F)F)cc1-c1ccc(F)cc1 (stereo not shown) [Example 48, 2-(1-Methylpyrrolidin-2-yl)ethyl(4′-fluoro-5-(trifluoromethyl)-[1,1′-biphenyl]-2-yl)carbamate]
31 | 7.33 | CN1CC[C@@H](COC(=O)Nc2ccc(F)cc2-c2cc(O)cc(Cl)c2)C1 [Example 134, (R)-(1-methylpyrrolidin-3-yl)methyl(3′-chloro-5-fluoro-5′-hydroxy-[1,1′-biphenyl]-2-yl)carbamate]
